The source made the active and inactive calls. No cut-off for these calls is given here.
How the values were obtained:
[1] = target: Intercellular adhesion molecule (ICAM-1), Integrin alpha-L/beta-2 (Homo sapiens, UniProt P05107+P05362+P20701); test: (§1) Inhibition of LFA1 binding to full length soluble ICAM1 by gamma scintillation counter; type: protein-complex assay
[2] = target: Intercellular adhesion molecule (ICAM-1), Integrin alpha-L/beta-2 (Homo sapiens) (UniProt P20701+P05362+P05107); test: as §1; type: protein-complex assay

Chain of Intercellular adhesion molecule (ICAM-1), Integrin alpha-L/beta-2 (P20701 whole entry): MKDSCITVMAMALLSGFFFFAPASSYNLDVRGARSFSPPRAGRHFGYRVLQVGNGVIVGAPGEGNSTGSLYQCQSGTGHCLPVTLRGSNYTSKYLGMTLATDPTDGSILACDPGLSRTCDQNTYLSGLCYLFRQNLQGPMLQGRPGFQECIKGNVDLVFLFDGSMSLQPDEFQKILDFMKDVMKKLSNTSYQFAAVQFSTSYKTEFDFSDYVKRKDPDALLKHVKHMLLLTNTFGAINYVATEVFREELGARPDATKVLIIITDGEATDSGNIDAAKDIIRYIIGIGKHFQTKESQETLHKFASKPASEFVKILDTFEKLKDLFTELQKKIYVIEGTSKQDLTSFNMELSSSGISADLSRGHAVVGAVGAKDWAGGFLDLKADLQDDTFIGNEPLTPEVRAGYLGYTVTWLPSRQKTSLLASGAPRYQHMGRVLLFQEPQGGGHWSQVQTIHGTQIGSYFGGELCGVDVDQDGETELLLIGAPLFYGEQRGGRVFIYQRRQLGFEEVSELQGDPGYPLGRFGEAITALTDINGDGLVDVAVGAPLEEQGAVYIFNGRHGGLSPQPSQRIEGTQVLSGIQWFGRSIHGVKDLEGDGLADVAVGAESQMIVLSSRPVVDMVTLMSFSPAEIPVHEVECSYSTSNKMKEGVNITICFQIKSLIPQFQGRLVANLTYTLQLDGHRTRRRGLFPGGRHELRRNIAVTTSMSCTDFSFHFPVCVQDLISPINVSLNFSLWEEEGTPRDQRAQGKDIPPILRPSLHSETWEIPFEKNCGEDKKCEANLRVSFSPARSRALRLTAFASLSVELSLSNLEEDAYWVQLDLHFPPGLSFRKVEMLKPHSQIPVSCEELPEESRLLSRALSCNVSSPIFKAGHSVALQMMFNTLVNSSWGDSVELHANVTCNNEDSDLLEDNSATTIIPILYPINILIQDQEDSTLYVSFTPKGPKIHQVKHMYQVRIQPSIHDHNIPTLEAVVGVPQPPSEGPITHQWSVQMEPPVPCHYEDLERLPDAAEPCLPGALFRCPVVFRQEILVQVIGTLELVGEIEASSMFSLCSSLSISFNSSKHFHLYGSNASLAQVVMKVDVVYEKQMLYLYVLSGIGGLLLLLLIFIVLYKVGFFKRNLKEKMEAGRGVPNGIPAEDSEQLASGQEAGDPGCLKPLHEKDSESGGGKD
Chain of Intercellular adhesion molecule (ICAM-1), Integrin alpha-L/beta-2 (P05362 whole entry): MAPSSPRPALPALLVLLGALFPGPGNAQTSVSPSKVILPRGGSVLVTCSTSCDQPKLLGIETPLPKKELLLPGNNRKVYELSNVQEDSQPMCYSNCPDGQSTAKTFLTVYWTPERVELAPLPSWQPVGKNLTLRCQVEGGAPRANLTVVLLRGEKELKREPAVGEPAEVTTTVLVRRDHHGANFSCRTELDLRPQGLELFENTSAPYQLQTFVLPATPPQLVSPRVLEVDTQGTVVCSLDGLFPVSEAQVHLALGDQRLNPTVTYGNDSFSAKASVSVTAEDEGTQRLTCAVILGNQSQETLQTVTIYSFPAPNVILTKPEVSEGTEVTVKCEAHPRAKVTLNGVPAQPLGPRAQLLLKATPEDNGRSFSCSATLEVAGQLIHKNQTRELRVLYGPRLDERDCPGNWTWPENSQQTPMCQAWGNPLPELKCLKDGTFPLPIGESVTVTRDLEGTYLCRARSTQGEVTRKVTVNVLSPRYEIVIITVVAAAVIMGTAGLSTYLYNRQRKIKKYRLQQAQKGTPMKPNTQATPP
Chain of Intercellular adhesion molecule (ICAM-1), Integrin alpha-L/beta-2 (P05107 whole entry): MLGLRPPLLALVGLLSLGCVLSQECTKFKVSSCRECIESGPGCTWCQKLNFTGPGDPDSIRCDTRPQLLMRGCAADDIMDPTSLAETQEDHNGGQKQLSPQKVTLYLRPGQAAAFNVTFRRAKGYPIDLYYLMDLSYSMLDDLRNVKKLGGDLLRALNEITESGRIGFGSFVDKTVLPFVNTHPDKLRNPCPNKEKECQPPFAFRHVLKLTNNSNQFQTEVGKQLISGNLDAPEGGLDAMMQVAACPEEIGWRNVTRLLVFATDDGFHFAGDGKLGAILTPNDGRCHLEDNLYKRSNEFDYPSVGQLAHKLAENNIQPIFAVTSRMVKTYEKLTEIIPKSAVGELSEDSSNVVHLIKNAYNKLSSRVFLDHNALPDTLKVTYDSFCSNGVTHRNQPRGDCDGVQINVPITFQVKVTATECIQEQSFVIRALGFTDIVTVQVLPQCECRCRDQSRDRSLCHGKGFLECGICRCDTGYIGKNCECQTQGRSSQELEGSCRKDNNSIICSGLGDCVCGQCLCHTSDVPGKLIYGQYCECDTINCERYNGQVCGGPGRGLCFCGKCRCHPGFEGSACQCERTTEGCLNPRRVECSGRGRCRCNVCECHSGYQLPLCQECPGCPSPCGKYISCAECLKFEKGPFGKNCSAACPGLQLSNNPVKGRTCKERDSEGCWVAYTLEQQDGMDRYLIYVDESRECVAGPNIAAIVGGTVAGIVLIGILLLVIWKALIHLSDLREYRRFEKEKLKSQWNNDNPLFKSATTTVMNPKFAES

IC50 [1] | Activity [2] | Compound
50 µM |  | C=C/C(C)=C/C[C@]1(C)[C@H]2C[C@@H](OC(=O)/C(C)=C/C)C[C@@H]3[C@H](OC(C)=O)OC(OC(C)=O)[C@@]32[C@H](O)C[C@@H]1C (some centres undefined) [CASEARINOL A]
 | Active | C=C/C(C)=C\C[C@]1(C)[C@H]2C[C@@H](OC(C)=O)C[C@@H]3[C@H](OC(C)=O)O[C@H](OC(C)=O)[C@@]32C(=O)C[C@@H]1C
 | Active | C=C/C(C)=C/C[C@]1(C)[C@H]2C[C@@H](OC(=O)C(C)CC)C[C@@H]3[C@H](OC(C)=O)OC(OC(C)=O)[C@@]32[C@H](O)C[C@@H]1C (some centres undefined)
 | Active | C=C/C(C)=C/C[C@]1(C)[C@H]2C[C@@H](OC(C)=O)C[C@@H]3[C@H](OC(C)=O)O[C@H](OC(C)=O)[C@@]32C(=O)C[C@@H]1C

Source: ChEMBL document CHEMBL1158327, “Four new clerodane diterpenes from the leaves of Casearia guianensis which inhibit the interaction of leukocyte function antigen 1 with intercellular adhesion molecule 1” (J Nat Prod, 1997)
